Laboratory results from publication PMC7252619 (PLoS ONE, 2020).
One block for each molecule: values may come before it.

Experiments:
Assay in all cases: Kinase activity test (ReactionBiology), % enzyme activity relative to DMSO;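 on % Enzyme Activity (relative to DMSO controls), Data 2: FDA-approved drugs chosen by structure-based repositioning, each screened at 10 or 1 µM for kinase activity, expressed as percent of DMSO controls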
Format in all cases: biochemical
NEK2 = molecular target: T1, NEK2 (Homo sapiens, UniProt P51955); conditions: NEK2;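 further: FDA-approved drugs chosen by structure-based repositioning, each screened at 10 or 1 µM for kinase activity, expressed as percent of DMSO controls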
T1 construct: purchased ReactionBiology
T1 sequence (P51955 1-445): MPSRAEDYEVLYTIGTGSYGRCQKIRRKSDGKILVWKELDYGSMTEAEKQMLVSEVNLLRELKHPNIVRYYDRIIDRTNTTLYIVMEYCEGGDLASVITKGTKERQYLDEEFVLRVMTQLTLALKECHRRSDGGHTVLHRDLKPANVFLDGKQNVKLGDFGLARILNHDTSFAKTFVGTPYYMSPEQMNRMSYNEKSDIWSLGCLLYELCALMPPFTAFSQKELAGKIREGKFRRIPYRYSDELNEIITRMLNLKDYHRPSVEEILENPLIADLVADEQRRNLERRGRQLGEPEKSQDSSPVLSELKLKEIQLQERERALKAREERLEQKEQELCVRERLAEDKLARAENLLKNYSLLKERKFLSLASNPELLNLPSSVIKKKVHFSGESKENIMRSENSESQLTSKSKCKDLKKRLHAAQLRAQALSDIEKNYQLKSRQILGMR

CK1d = molecular target: T2, CK1d (Homo sapiens, UniProt P48730); conditions: CK1d; for % Enzyme Activity (relative to DMSO controls), Data 1: 1 uM, replicate Data 1
T2 construct: purchased ReactionBiology
T2 sequence (P48730 whole entry): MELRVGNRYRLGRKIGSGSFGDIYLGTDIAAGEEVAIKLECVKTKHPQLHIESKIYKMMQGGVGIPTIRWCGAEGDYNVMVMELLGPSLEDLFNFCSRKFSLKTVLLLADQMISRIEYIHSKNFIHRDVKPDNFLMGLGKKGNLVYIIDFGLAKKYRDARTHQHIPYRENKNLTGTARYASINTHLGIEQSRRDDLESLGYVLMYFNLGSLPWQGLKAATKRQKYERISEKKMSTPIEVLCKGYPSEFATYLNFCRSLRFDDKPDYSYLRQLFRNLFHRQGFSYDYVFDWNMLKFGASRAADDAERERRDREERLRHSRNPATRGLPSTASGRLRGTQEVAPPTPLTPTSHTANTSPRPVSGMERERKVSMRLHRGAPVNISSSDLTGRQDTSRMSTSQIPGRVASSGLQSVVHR

VEGFR2 = VEGFR2 (Homo sapiens, UniProt P35968); parameters: purchased ReactionBiology; conditions: VEGFR2, replicate Data 1;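 further: VEGFR2 was one member of a ten-kinase screening panel testing marketed FDA-approved drugs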
VEGFR2, sequence (P35968 20-1356): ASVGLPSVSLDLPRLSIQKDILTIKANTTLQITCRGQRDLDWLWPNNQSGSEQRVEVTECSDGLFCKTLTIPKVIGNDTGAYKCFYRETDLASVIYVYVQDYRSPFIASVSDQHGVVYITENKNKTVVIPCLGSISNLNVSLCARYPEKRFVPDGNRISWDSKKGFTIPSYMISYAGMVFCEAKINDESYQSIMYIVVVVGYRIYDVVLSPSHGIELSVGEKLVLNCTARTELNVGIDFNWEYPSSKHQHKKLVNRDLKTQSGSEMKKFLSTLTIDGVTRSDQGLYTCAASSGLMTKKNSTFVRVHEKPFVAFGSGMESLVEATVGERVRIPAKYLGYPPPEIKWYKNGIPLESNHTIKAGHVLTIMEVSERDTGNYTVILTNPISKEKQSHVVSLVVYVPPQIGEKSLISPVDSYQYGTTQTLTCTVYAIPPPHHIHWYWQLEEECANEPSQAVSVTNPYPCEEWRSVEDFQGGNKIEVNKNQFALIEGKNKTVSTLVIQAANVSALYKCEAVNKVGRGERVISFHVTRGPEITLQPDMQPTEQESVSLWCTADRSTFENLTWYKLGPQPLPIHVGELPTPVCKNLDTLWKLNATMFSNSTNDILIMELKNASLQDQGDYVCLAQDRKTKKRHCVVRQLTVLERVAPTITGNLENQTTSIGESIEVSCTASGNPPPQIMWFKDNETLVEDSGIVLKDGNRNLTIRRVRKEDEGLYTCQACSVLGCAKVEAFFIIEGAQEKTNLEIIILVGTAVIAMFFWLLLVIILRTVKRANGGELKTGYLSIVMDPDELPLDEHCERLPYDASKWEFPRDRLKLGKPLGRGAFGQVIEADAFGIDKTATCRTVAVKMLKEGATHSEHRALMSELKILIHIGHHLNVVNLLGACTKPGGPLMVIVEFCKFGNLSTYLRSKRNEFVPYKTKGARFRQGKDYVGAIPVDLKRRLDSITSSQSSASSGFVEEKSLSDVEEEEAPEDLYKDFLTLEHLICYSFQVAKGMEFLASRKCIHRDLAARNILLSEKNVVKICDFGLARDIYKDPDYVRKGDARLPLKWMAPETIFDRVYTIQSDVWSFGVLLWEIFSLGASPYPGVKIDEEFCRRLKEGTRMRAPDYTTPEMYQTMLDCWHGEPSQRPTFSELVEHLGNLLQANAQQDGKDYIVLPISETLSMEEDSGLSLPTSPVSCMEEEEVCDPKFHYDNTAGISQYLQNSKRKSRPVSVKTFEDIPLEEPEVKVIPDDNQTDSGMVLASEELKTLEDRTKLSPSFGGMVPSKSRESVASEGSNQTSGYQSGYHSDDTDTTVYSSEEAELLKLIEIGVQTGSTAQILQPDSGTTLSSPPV

DAPK1 = molecular target: T3, DAPK1 (Homo sapiens, UniProt P53355); conditions: DAPK1; for % Enzyme Activity (relative to DMSO controls), Data 1: replicate Data 1
T3 construct: purchased ReactionBiology
T3 sequence (P53355 whole entry): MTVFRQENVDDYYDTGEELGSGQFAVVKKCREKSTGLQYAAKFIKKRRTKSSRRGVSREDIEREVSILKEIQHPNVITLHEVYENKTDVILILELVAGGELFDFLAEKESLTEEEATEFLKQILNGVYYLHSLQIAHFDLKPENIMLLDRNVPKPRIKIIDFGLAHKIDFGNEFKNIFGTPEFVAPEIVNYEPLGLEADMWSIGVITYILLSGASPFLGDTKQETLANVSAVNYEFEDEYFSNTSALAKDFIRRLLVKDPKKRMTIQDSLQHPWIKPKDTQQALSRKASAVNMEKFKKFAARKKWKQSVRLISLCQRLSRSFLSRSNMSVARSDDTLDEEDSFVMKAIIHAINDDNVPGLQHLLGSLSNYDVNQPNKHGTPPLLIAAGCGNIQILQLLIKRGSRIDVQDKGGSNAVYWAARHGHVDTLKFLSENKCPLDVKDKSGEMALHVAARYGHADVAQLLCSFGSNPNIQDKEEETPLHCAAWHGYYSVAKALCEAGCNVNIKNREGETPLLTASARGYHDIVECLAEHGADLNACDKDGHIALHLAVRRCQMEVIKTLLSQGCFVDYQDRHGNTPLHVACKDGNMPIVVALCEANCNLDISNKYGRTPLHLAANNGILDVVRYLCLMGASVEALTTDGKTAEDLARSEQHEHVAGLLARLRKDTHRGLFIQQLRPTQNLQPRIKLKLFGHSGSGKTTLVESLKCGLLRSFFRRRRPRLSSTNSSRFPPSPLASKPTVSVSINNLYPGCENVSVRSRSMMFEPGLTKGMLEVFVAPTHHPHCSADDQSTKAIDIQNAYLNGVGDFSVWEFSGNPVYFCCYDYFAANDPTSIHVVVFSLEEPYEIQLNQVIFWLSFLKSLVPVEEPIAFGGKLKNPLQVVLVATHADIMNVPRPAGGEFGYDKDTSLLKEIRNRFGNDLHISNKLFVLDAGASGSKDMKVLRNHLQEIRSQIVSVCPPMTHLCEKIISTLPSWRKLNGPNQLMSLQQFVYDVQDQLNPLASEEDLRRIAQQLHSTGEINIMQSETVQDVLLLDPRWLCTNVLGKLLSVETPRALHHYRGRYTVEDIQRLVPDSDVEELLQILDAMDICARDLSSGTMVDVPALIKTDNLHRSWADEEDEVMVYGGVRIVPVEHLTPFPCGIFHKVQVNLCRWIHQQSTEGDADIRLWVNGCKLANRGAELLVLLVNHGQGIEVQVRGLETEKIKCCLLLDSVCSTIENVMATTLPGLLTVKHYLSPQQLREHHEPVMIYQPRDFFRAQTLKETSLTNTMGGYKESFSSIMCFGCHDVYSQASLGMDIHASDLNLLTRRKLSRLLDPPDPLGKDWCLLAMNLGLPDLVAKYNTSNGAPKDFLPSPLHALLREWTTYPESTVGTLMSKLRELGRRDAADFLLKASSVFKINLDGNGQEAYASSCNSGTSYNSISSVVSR

[1] = compound at 1 uM, average of Data 1 and Data 2
[2] = compound at 10 uM, average of Data 1 and Data 2

% Enzyme Activity (relative to DMSO controls), Average (NEK2; 1 uM, Average): 95.71%
% Enzyme Activity (relative to DMSO controls), Data 1 (NEK2; 1 uM, replicate Data 1): 89.78%
% Enzyme Activity (relative to DMSO controls), Data 2 (NEK2; 1 uM, replicate Data 2): 101.63%
% Enzyme Activity (relative to DMSO controls), Average (NEK2; 10 uM, Average): 100.82%
% Enzyme Activity (relative to DMSO controls), Data 1 (NEK2; 10 uM, replicate Data 1): 99.97%
% Enzyme Activity (relative to DMSO controls), Data 2 (NEK2; 10 uM, replicate Data 2): 101.67%
Compound: Cc1nnc(C(C)C)n1C1C[C@H]2CC[C@@H](C1)N2CC[C@H](NC(=O)C1CCC(F)(F)CC1)c1ccccc1 (stereo in doubt) [Maraviroc]

% Enzyme Activity (relative to DMSO controls), Average (NEK2; 1 uM, Average): 93.64%
% Enzyme Activity (relative to DMSO controls), Data 1 (NEK2; 1 uM, replicate Data 1): 83.95%
% Enzyme Activity (relative to DMSO controls), Data 2 (NEK2; 1 uM, replicate Data 2): 103.33%
% Enzyme Activity (relative to DMSO controls), Average (NEK2; 10 uM, Average): 100.63%
% Enzyme Activity (relative to DMSO controls), Data 1 (NEK2; 10 uM, replicate Data 1): 101.40%
% Enzyme Activity (relative to DMSO controls), Data 2 (NEK2; 10 uM, replicate Data 2): 99.86%
Compound: Nc1nc2c(ncn2COCCO)c(=O)[nH]1 [Acyclovir]

% Enzyme Activity (relative to DMSO controls), Average (NEK2; [1]): 111.12%
% Enzyme Activity (relative to DMSO controls), Data 1 (NEK2; compound at 1 uM, replicate 1): 112.02%
% Enzyme Activity (relative to DMSO controls), Data 2 (NEK2; compound at 1 uM, replicate 2): 110.21%
% Enzyme Activity (relative to DMSO controls), Average (NEK2; [2]): 89.44%
% Enzyme Activity (relative to DMSO controls), Data 1 (NEK2; compound at 10 uM, replicate 1): 97.24%
% Enzyme Activity (relative to DMSO controls), Data 2 (NEK2; compound at 10 uM, replicate 2): 81.63%
Compound: Nc1nc2c(ncn2COC(CO)CO)c(=O)[nH]1 [Ganciclovir]

% Enzyme Activity (relative to DMSO controls), Average (NEK2; [1]): 113.06%
% Enzyme Activity (relative to DMSO controls), Data 1 (NEK2; compound at 1 uM, replicate 1): 110.81%
% Enzyme Activity (relative to DMSO controls), Data 2 (NEK2; compound at 1 uM, replicate 2): 115.31%
% Enzyme Activity (relative to DMSO controls), Average (NEK2; [2]): 102.41%
% Enzyme Activity (relative to DMSO controls), Data 1 (NEK2; compound at 10 uM, replicate 1): 100.39%
% Enzyme Activity (relative to DMSO controls), Data 2 (NEK2; compound at 10 uM, replicate 2): 104.43%
Compound: OC[C@@H](O)[C@@H](O)[C@H](O)[C@H](O)CO [Mannitol]

Second part, the molecule before the results:

Compound: CC(=O)OCC1=C(C(=O)O)N2C(=O)[C@@H](NC(=O)Cc3cccs3)[C@H]2SC1 [Cephalothin]
% Enzyme Activity (relative to DMSO controls), Average (NEK2; [1]): 98.03%
% Enzyme Activity (relative to DMSO controls), Data 1 (NEK2; compound at 1 uM, replicate 1): 94.64%
% Enzyme Activity (relative to DMSO controls), Data 2 (NEK2; compound at 1 uM, replicate 2): 101.41%
% Enzyme Activity (relative to DMSO controls), Average (NEK2; [2]): 78.52%
% Enzyme Activity (relative to DMSO controls), Data 1 (NEK2; compound at 10 uM, replicate 1): 86.91%
% Enzyme Activity (relative to DMSO controls), Data 2 (NEK2; compound at 10 uM, replicate 2): 70.13%

Compound: CC(C)CN(C[C@@H](O)[C@H](Cc1ccccc1)NC(=O)O[C@H]1CO[C@H]2OCC[C@H]21)S(=O)(=O)c1ccc(N)cc1 [Darunavir]
% Enzyme Activity (relative to DMSO controls), Data 1 (CK1d): 116.81%
% Enzyme Activity (relative to DMSO controls), Data 1 (VEGFR2; 1 uM): 105.45%
% Enzyme Activity (relative to DMSO controls), Data 1 (VEGFR2; 10 uM): 98.21%
% Enzyme Activity (relative to DMSO controls), Data 1 (DAPK1; 1 uM): 101.48%
% Enzyme Activity (relative to DMSO controls), Data 1 (DAPK1; 10 uM): 82.12%

Compound: c1coc(CNc2ncnc3[nH]cnc23)c1 [Kinetin]
% Enzyme Activity (relative to DMSO controls), Average (NEK2; [1]): 107.09%
% Enzyme Activity (relative to DMSO controls), Data 1 (NEK2; compound at 1 uM, replicate 1): 107.23%
% Enzyme Activity (relative to DMSO controls), Data 2 (NEK2; compound at 1 uM, replicate 2): 106.95%
% Enzyme Activity (relative to DMSO controls), Average (NEK2; [2]): 94.02%
% Enzyme Activity (relative to DMSO controls), Data 1 (NEK2; compound at 10 uM, replicate 1): 94.51%
% Enzyme Activity (relative to DMSO controls), Data 2 (NEK2; compound at 10 uM, replicate 2): 93.52%

Compound: Cc1ccc(Nc2c(F)cccc2Cl)c(CC(=O)O)c1 [Lumiracoxib]
% Enzyme Activity (relative to DMSO controls), Average (CK1d; 10 uM, Average): 99.41%
% Enzyme Activity (relative to DMSO controls), Average (DAPK1; 1 uM): 98.27%
% Enzyme Activity (relative to DMSO controls), Average (DAPK1; 10 uM): 101.02%

Compound: Cc1ccc(Cl)c(Nc2ccccc2C(=O)O)c1Cl [Meclofenamate]
% Enzyme Activity (relative to DMSO controls), Data 1 (CK1d): 125.84%
% Enzyme Activity (relative to DMSO controls), Data 1 (VEGFR2; 1 uM): 108.3%
% Enzyme Activity (relative to DMSO controls), Data 1 (VEGFR2; 10 uM): 109.87%
% Enzyme Activity (relative to DMSO controls), Data 1 (DAPK1; 1 uM): 121.09%
% Enzyme Activity (relative to DMSO controls), Data 1 (DAPK1; 10 uM): 115.51%
